Data as given in patent publication US20160137714A1 (Thrasos Innovation, Inc., priority 2014, published 2016).
Where “and” joins values, the source holds several entries; their conditions need not be identical. Equal entries are not always repeated. Where two headings read alike, the source gives them in different places. Positions of bridges follow the written chain, without caps; N, C: chain ends. Non-standard residues stand in square brackets, D forms with d. Residues, ends and D or L forms follow the SMILES beside them.

What was measured:
[1] = Pharmacokinetics of GPR-405 given at 1 mg/kg sc in CD1 mice; type: in vivo, mouse
Method: The study described herein involved single (mouse) or multiple (rat) blood collections after test article administration. Test articles are given by oral (PO), intravenous (IV), subcutaneous (SC) or intraperitoneal (IP) routes. All animals have a five day acclimatization period before dosing. Body weights are recorded prior to dosing. For mouse PK, 3 animals per group per time point are used (terminal bleed). For rats, multiple blood samplings per animal (adequately spaced in time) are taken. At the end of the study, all animals are euthanized by CO2 and final blood sample was collected via cardiac puncture.
Preparations are performed under a laminar flow hood using clean procedures. The formulations are kept at in a refrigerator set to maintain 4° C. before use. The dose volume for each animal is based on the most recent body weight measurement.
for PO administration, animal has either restricted access to food until the next day (12 h) before dosing or are allowed free access to food (depending on whether the PK will be done on fasted or fed animals). In all cases, animals has access to water ad libidum. PO dosing is done by gavage using a curved gavage needle (with rounded tip). All animals are observed for few seconds after injection to make sure there are no side effects. For IV administration, dosing (mice and rat) is done by the tail vein. Compound administration is done by slow (15-60 sec) bolus or by slow IV infusion (up to 1 h) using a calibrated syringe pump. For subcutaneous (dorsal region) and intraperitoneal injections, dosing is done with the appropriate needle and volume as per IACUC guidelines. GPR-405 was administered once by SC injection to each animal in the test group using a hypodermic needle attached to a syringe. No dose was administered to control animals.
Sampling is done via the tail, jugular or saphenous vein. Typical time for blood collection for PK are Pre, 5, 15, 30 minutes, 1 h, 2 h, 4 h, 8 h, 24 h. For mice, animals are terminated at each collection (cardiac puncture post-euthanasia). For rats, 200 μl are collected at each time point (max 3 time points per rat in 24 h). Plasma harvested from blood is mixed with 8.5% phosphoric acid (2% v/v of plasma). All plasma samples collected are stored in a freezer, set to maintain −80° C. until bioanalysis. At necropsy, tissues, organs and/or biological fluid are collected, as needed, for analysis. Urine collection is done using metabolic cages when required.
A stock solution of the test article is prepared at 250 μg/mL in DMSO. This solution is quantitatively added to blank mouse or rat plasma to generate a calibration curve. The linear range is from 0.25 to 250 ng/mL. A 175 μL aliquot of plasma is removed from each calibrant tube and processed using solid phase extraction (SPE). Study samples are first diluted with blank control mouse or rat plasma, and 175 μL is aliquoted for processing using SPE. An internal standard working solution (ISWS) is added to each calibrant and study sample (GPR-227 at 100 ng/mL in water). Plasma proteins are precipitated with 175 μL of methanol with 0.5% acetic acid (v/v). After centrifugation at 14,800 RPM for 10 minutes, a 300 μL aliquot of supernatant is diluted in water with 4% phosphoric acid (v/v). The entire diluted sample is extracted by SPE using a Waters Oasis HLB 96-well μElution plate. Samples are washed twice using a solution of acidified water (0.1% TFA, v/v) and 15% MeOH in water (v/v). Purified extracts are eluted into a 96-well collection plate using 40 μL of elution solvent. Standards and study samples are injected onto a Thermo Q-exactive LC-MS/MS system. Chromatographic separation is performed using a reversed-phase C18 HPLC column (Waters CSH C18, 50×2.1 mm, 2.5 μm). Analyte and internal standard are detected using the targeted selected ion monitoring (tSIM) scan mode. […]

[2] = Ex-vivo plasma stability; type: in vitro ADME, mouse or rat; details: fresh plasma 37° C., 1 μM
Method: Test article is added to fresh mouse or rat plasma at a final in-vial concentration of 1 μM. The peptide is incubated in a water bath at 37° C. over a time course that included the following points (in minutes): 0, 15, 30, 60, 120, 240, and 1440. After the incubation time is completed, a 50 μL aliquot of plasma is removed and proteins are precipitated using a solution containing internal standard (THR-123 at 150 ng/mL) in methanol with 0.5% acetic acid (v/v). The samples are centrifuged at 13,000 RPM for 5 minutes, and a 100 μL aliquot of supernatant is removed and transferred to a 96-well plate containing 200 μL of reconstitution solution (Water/MeOH/Acetic Acid/TFA, 60/40/0.2/0.05, v/v/v/v). A calibration curve and quality control (QC) samples are prepared in parallel in the same manner as the incubation samples. The calibration range for this assay is from 0.02 to 2.0 μM in rat or mouse plasma. The extracted calibrants, QC, and incubation samples are injected onto an AB SCIEX API 2000 LC-MS/MS system. Chromatographic separation is performed using a reversed-phase C18 HPLC column (Ace-3 C18, 30×2.1 mm, 3 μm). The solvent system consists of Milli-Q water, acetonitrile and formic acid. Analyte and internal standard are detected using the multiple reaction monitoring (MRM) scan mode. Calibration curves are generated by using a weighted (1/concentration) quadratic regression analysis of the peak area ratios (analyte/internal standard) versus the nominal concentration of the calibration standards. The concentration of the analyte in the incubation samples is determined by back-calculating the peak area ratios obtained using the quadratic regression.

[3] = THR-123 i.v. in rodents: half-life and metabolites in plasma and kidney tissue; type: in vivo, rat
Text: The main metabolite VII results from a proteolytic cleavage between positions 14 and 15 (VII in FIG. 2). The structure of each metabolite was confirmed by synthesis and analytical characterization.

[4] = mouse, in vivo, 1 mg/kg sc in CD1 mice

For `CC(C)C[C@@H]1NC(=O)[C@H](C(C)C)NC(=O)[C@H](CCC(N)=O)NC(=O)[C@H](CO)NC(=O)[C@H](CO)NC(=O)[C@H](CC(N)=O)NC(=O)[C@H](Cc2ccccc2)NC(=O)[C@H](Cc2ccc(O)cc2)NC(=O)[C@H](Cc2ccc(O)cc2)NC(=O)[C@@H](N)CSSC[C@@H](C(=O)N[C@@H](CCCCN)C(=O)N[C@@H](CCCNC(=N)N)C(=O)N[C@H](Cc2ccc(O)cc2)C(=O)N[C@@H](CCCNC(=N)N)C(=O)N[C@@H](CO)C(=O)O)NC1=O` [GPR-405, Cys-Tyr-Tyr-Phe-Asn-Ser-Ser-Gln-Val-Leu-Cys-Lys-Arg-(D)Tyr-Arg-Ser] (H-CYYFNSSQVLCKR[dY]RS-OH; disulfide 1-11), the “AUMC(0-t)” value ([1]; 1 mg/kg sc in CD1 mice) was 196073 ng*min^2/ml, the “CL*F” value ([1]; 1 mg/kg sc in CD1 mice) was 3.83 mL/min and the “CL/kg*F” value ([1]; 1 mg/kg sc in CD1 mice) was 120 mL/min/kg. For the same compound, the KeI ([1]; 1 mg/kg sc in CD1 mice) was 0.04 min⁻¹, the Tmax ([1]; 1 mg/kg sc in CD1 mice) was 5 min and the “Vd*F” value ([1]; 1 mg/kg sc in CD1 mice) was 172.28 mL. The Vss ([1]; 1 mg/kg sc in CD1 mice) was 90.22 mL, the “Terminal T1/2” value ([1]; 1 mg/kg sc in CD1 mice, based on terminal decay rate) was 31.21 min and the “K′ (terminal decay rate)” value ([1]; 1 mg/kg sc in CD1 mice, log-linear fit of 30, 60, 240 min) was 0.022 min⁻¹. For the same compound, the “clearance compared with renal clearance” value ([1]; 1 mg/kg sc in CD1 mice, mouse GFR approximately 10 ml/min/kg) was “about ten times greater than renal clearance”, the half-life ([1]; mouse, in vivo, sc, 1 mg/kg, 1 mg/kg sc in CD1 mice, based on terminal decay rate, read-out: Terminal T1/2) was ~30 min and the half-life ([1]; mouse, in vivo, sc, 1 mg/kg, 1 mg/kg sc in CD1 mice, read-out: Biological T1/2 (overall half-life)) was ~16 min. For the same compound, the Tmax ([1]; mouse, in vivo, sc, 1 mg/kg, 1 mg/kg sc in CD1 mice, read-out: Tmax) was < 5 min, the AUC(0-inf) [1, 4] was 142 ng·h/mL and the AUC(0-t) [1, 4] was 142 ng·h/mL. It also gave a Cmax [1, 4] of 504 ng/mL, an MRT [1, 4] of 23.1 min and a bioavailability ([1]; mouse, in vivo, sc, mice, preliminary data) of ~60%. For the same compound, the level at 5 min ([1]; mouse, plasma, 1 mg/kg sc, CD1 mice, 5 min, read-out: Mean Concentration) was 504 ng/mL, the level at 0.25 h ([1]; mouse, plasma, 1 mg/kg sc, CD1 mice, 15 min, read-out: Mean Concentration) was 117 ng/mL and the level at 0.5 h ([1]; mouse, plasma, 1 mg/kg sc, CD1 mice, 30 min, read-out: Mean Concentration) was 68.8 ng/mL. For the same compound, the level at 1 h ([1]; mouse, plasma, 1 mg/kg sc, CD1 mice, 60 min, read-out: Mean Concentration) was 15.9 ng/mL, the level at 4 h ([1]; mouse, plasma, 1 mg/kg sc, CD1 mice, 240 min, read-out: Mean Concentration) was 0.4 ng/mL and the “Final Concentration (individual mouse)” value ([1]; plasma, 1 mg/kg sc, CD1 mice, 5 min, 1 mg/kg) was 596.4 ng/ml and 411.9 ng/ml and 62.4 (outlier) ng/ml. The “Final Concentration (individual mouse)” value ([1]; plasma, 1 mg/kg sc, CD1 mice, 15 min, 1 mg/kg) was 114.2 ng/mL and 118.3 ng/mL and 118.4 ng/mL, the “Final Concentration (individual mouse)” value ([1]; plasma, 1 mg/kg sc, CD1 mice, 30 min, 1 mg/kg) was 49.0 ng/mL and 88.6 ng/mL and the “Final Concentration (individual mouse)” value ([1]; plasma, 1 mg/kg sc, CD1 mice, 60 min, 1 mg/kg) was 23.0 ng/mL and 11.9 ng/mL and 12.8 ng/mL. The “Final Concentration (individual mouse)” value ([1]; plasma, 1 mg/kg sc, CD1 mice, 240 min) was 0.4 ng/mL.
In the case of `CC(C)C[C@@H]1NC(=O)[C@H](C(C)C)NC(=O)[C@H](CC(N)=O)NC(=O)[C@H](CO)NC(=O)[C@H](CO)NC(=O)[C@H](CC(=O)O)NC(=O)[C@H](CC(=O)O)NC(=O)[C@H](Cc2ccccc2)NC(=O)[C@H](Cc2ccc(O)cc2)NC(=O)[C@@H](N)CSSC[C@@H](C(=O)N[C@@H](CCCCN)C(=O)N[C@@H](CCCCN)C(=O)N[C@@H](Cc2ccc(O)cc2)C(=O)N[C@@H](CCCNC(=N)N)C(=O)N[C@@H](CO)C(=O)O)NC1=O` [THR-123, Cys-Tyr-Phe-Asp-Asp-Ser-Ser-Asn-Val-Leu-Cys-Lys-Lys-Tyr-Arg-Ser] (H-CYFDDSSNVLCKKYRS-OH; disulfide 1-11), the remaining at 1 h ([2]; 60 min, read-out: Percent remaining 60 min) is reported as 3.4%, the remaining at 2 h ([2]; 120 min, read-out: Percent remaining 120 min) is reported as 2.3% and the “half-life in plasma and kidney tissue” value ([3]; administered intravenously to rodents, FIG. 1) is reported as “short half-life”. The “metabolites identified in the kidney” value ([3]; rat kidney tissue, ten minutes post i.v. administration, FIG. 2) was “metabolites VI, VII, VIII and IX”.
